In patent US20060194883A1, “Mmp expression inhibitor” (EISAI CO., LTD, priority 2003, published 2006):

Tests used:
GAPDH = test: RT-PCR of invasion-related factors in hepatic cancer cells; assay type: cell-based; details: hepatic cancer cells (HepG2, Hep3B, Huh7)
Description: (§1) Test was performed by RT-PCR to investigate MMP expression. This test was to investigate expression of various MMPs (MMP-1, MMP-2, MMP-3, MMP-7, MMP-9 and MMP-14 (MT1-MMP)) and of transcription factor Ets-1 that affect MMP expression and the extracellular matrix receptor β1 integrin when menatetrenone was added to various hepatic cancer cells (HepG2, Hep3B, Huh7).

[1] = system: transcription factor Ets-1; test: as above; assay type: cell-based; details: hepatic cancer cells (HepG2, Hep3B, Huh7)
Description: as §1

MMP-7 = test: as above; assay type: cell-based; details: hepatic cancer cells (HepG2, Hep3B, Huh7)
Description: as §1

MMP-14 (MT1-MMP) = test: as above; assay type: cell-based; details: hepatic cancer cells (HepG2, Hep3B, Huh7)
Description: as §1

MMP-1 [2] = test: as above; assay type: cell-based; details: hepatic cancer cells (HepG2, Hep3B, Huh7)
Description: as §1

MMP-3 [3] = test: as above; assay type: cell-based; details: hepatic cancer cells (HepG2, Hep3B, Huh7)
Description: as §1

β1 integrin = test: as above; assay type: cell-based; details: hepatic cancer cells (HepG2, Hep3B, Huh7)
Description: as §1

[4] = system: Huh7 hepatic cancer cells; test: cell cycle analysis by flow cytometry (FACS); assay type: cell-based; details: 10^−6 to 10^−4 M, 48 hours
Description: (§2) To investigate the effects of menatetrenone on the cell cycles of cancer cells, distributions according to DNA amount in hepatic cancer cells to which menatetrenone had been added were analyzed by flow cytometry (FACS). In this test, menatetrenone was added at concentrations of 0 M, 10^−6 M, 10^−5 M and 10^−4 m to HepG2, Huh7, Hep3B and HLE hepatic cancer cells, and changes in the cell cycles were observed by FACS 48 hours later.

[5] = system: Hep3B hepatic cancer cells; test: cell cycle analysis by flow cytometry (FACS); assay type: cell-based; details: 10^−6 to 10^−4 M, 48 hours
Description: as §2

HLE hepatic cancer cells = test: cell cycle analysis by flow cytometry (FACS); assay type: cell-based; details: 10^−6 to 10^−4 M, 48 hours
Description: as §2

[6] = system: HepG2 hepatic cancer cells; test: cell cycle analysis by flow cytometry (FACS); assay type: cell-based; details: 10^−6 to 10^−4 M, 48 hours
Description: as §2

MMP-1 [7] = test: Western blot of MMP protein expression in hepatic cancer cells; assay type: cell-based; details: hepatic cancer cells (HepG2, Hep3B, Huh7)
Description: (§3) Testing was performed by Western blot to investigate MMP expression. In this test protein expressions of MMP-1 and MMP-3 were investigated when menatetrenone was added to various hepatic cancer cells (HepG2, Hep3B, Huh7).

MMP-3 [8] = test: as above; assay type: cell-based; details: hepatic cancer cells (HepG2, Hep3B, Huh7)
Description: as §3

MMP-3 promoter = test: MMP gene promoter activity test (luciferase reporter); assay type: cell-based; details: Huh7 cells, 48 hours
Description: (§4) Next, promoter reporter genes for MMP-1, MMP-3 and MMP-7 were introduced into Huh7 hepatic cancer cells, and the effect of menatetrenone on the activity of these MMP promoters was investigated. The MMP-1, MMP-3 and MMP-7 promoter-luciferase reporter plasmids used were prepared by replacing the reporter gene part of the MMP promoter-CAT reporter plasmid reported in Ozaki I, Mizuta T, Zhang H, Yoshimura T, Kawazoe S, Eguchi Y, Yasutake T, Hisatomi A, Sakai T and Yamamoto K, “Induction of multiple matrix metalloproteinase genes in human hepatocellular carcinoma by hepatocyte growth factor via a transcription factor Ets-1,” Hepatol. Res. 27, 288-300. The various MMP-luciferase plasmids were introduced into Huh7 hepatic cancer cells using lipofectamine, menatetrenone was added at various concentrations, and after 48 hours the cells were collected and luciferase activity measured to investigate the effects of menatetrenone on MMP-1, MMP-3 and MMP-7 gene promoter activity.

MMP-7 promoter = test: as above; assay type: cell-based; details: Huh7 cells, 48 hours
Description: as §4

MMP-1 promoter = test: as above; assay type: cell-based; details: Huh7 cells, 48 hours
Description: as §4

[9] = cited from earlier work
[10] = system: HepG2 hepatic cancer cell line; test: cell proliferation by WST assay; assay type: cell-based; details: 10^−6 to 10^−4 M, 48 hours, vs control without menatetrenone
Description: (§5) Menatetrenone was added at concentrations of 0 M, 10^−6 M, 10^−5 M and 10^−4 M to HepG2, Huh7, Hep3B and HLE hepatic cancer cell lines, and cell proliferation was studied by WST assay after 48 hours.

[11] = system: Huh7 hepatic cancer cell line; test: cell proliferation by WST assay; assay type: cell-based; details: 10^−6 to 10^−4 M, 48 hours, vs control without menatetrenone
Description: as §5

[12] = system: Hep3B hepatic cancer cell line; test: cell proliferation by WST assay; assay type: cell-based; details: 10^−6 to 10^−4 M, 48 hours, vs control without menatetrenone
Description: as §5

[13] = system: HLE hepatic cancer cell line; test: cell proliferation by WST assay; assay type: cell-based; details: 10^−6 to 10^−4 M, 48 hours, vs control without menatetrenone
Description: as §5

[14] = system: hepatic cancer cells (HepG2); test: Matrigel invasion test (double chamber); assay type: cell-based; details: 10^−6 to 10^−4 M, 24 hours, NIH3T3 feeder
Description: To investigate the effect of menatetrenone in inhibiting invasion and metastasis of cancer cells, menatetrenone was added to hepatic cancer cells (HepG2) at concentrations of 0 M, 10^−6 M, 10^−5 M and 10^−4 M, and ability of the cancer cells to invade Matrigel was measured. In this test, cancer cells were spread on Matrigel which had been coated on the upper chamber of a double chamber, menatetrenone was added thereto. NIH3T3 cells were spread on the lower chamber as a feeder. The number of cells that had passed through the Matrigel and migrated to the bottom of the upper chamber after 24 hours was observed microscopically.

p16 = test: CDK inhibitor expression by RT-PCR in hepatic cancer cells; assay type: cell-based; details: 10^−6 to 10^−4 M
Description: To investigate the mechanism of inhibition of cell proliferation, genes involved in promoting the cell cycle were focused on, and changes caused by addition of menatetrenone in the amount of expression of CDK inhibitors p21, p27 and p16 which inhibit cyclin dependent kinase (CDK), an enzyme which promotes the cell cycle, were analyzed by the RT-PCR and Western blot methods. In this test, menatetrenone was added at concentrations of 0 M, 10^−6 M, 10^−5 M and 10^−4 M to HepG2, Huh7, Hep3B and HLE hepatic cancer cell lines, RNA was collected after 48 hours, and 1 μg of total RNA was subjected to RT-PCR to investigate expression of p21, p27 and p16. RT-PCR was performed on GAPDH (glyceraldehyde 3-phosphate dehydrogenase) as a control.

CC(C)=CCC/C(C)=C/CC/C(C)=C/CC/C(C)=C/CC1=C(C)C(=O)c2ccccc2C1=O [menatetrenone, 2-methyl-3-tetraprenyl-1,4-naphthoquinone]
dose-dependently inhibited: expression of the transcription factor Ets-1 [1] | expression of mRNA of MMP-7 (MMP-7) | expression of mRNA of MMP-14 (MMP-14 (MT1-MMP)) | expression of mRNA of MMP-1 (MMP-1 [2]) | expression of mRNA of MMP-3 (MMP-3 [3]) | MMP-3 promoter activity (MMP-3 promoter) | MMP-7 promoter activity (MMP-7 promoter) | MMP-1 promoter activity (MMP-1 promoter) | cell proliferation [10] | cell proliferation [11] | cell proliferation [12] | cell proliferation [13]
dissolves very little: solubility in water [9]
decreased: G2-phase cells [4] | G2-phase cells [5] | G2-phase cells (HLE hepatic cancer cells) | G2-phase cells [6]
no changes: expression of GAPDH mRNA (GAPDH) | expression of β1 integrin mRNA (β1 integrin) | p16 expression (p16; Huh7 cells)
dose-dependently inhibits: ability of cancer cells to invade Matrigel [14]
increased dose-dependently: proportion of G1-phase cells [4] | proportion of G1-phase cells [5] | proportion of G1-phase cells (HLE hepatic cancer cells) | proportion of G1-phase cells [6]
inhibited: protein expression of MMP-1 (MMP-1 [7]) | protein expression of MMP-3 (MMP-3 [8])
~50%: decrease of MMP-7 promoter activity (MMP-7 promoter) | decrease of MMP-1 promoter activity (MMP-1 promoter)
slight increase: p16 expression (p16; Hep3B cells)
